Reference: patent US20230054887A1, “SWEETENING AND TASTE-MASKING COMPOSITIONS, PRODUCTS AND USES THEREOF” (HEALTHTECH BIO ACTIVES, S.L.U., priority 2017, published 2023)
“And” between values parts separate entries of the source, which are not always exact repeats. Identical values can stand only once.

Tests used:
Format in all cases: in vivo
[1] = Sucrose substitution in orange juice based soft drink, triangular testing by calibrated panel
Source text: The purpose of this example was to maximize the sugar substitution in an orange juice based soft drink while maintaining the same overall taste profile. A calibrated panel was not able to distinguish the reference from the different prototypes in triangular testing.
The reference product (Formula 1 of Table 10) contained 10% added sucrose. The maximum sucrose substitution achieved with NHDC was 15% out of the initial 10 by using 10 ppm of NHDC (Formula 2 of Table 10). With the sweetening composition of the present invention, it was possible to increase the sucrose substitution, up to 25% without changing the taste profile of the beverage (Formula 3 of Table 10).
The composition of each beverage is disclosed in Table 10. For the preparation of these beverages, an orange juice concentrate 65° Bx (Dallant) and orange flavor #2N341/C (Dallant) were used. All the percentages in the table are by weight.

[2] = Sugar substitution in sweetened dark chocolate, calibrated panel
Source text: The percentages in the table are expressed by weight.
The reference product (Formula 1 of Table 11) contained a commercial chocolate with 70% cacao content (Lindt®) and 6% of powdered sugar.
Along all the assays performed, the goal was to maximize the sucrose substitution while maintaining the same overall taste profile. A calibrated panel was not able to distinguish the reference from the different prototypes tested.
The method used for preparing the dark chocolate products of this assay was as follows. Firstly, 1% solution of NHDC in glycerol was prepared by gradually adding 1 g of NHDC to 99 g of glycerol, mixing and heating to 60° C. for 15 minutes, until a transparent solution is obtained. The solution was left to cool off to room temperature. The dark chocolate was weighed and heated to 45° C. and, when the chocolate was completely melted, powdered sugar was added and, optionally, also the 1% NHDC glycerol solution or the composition of Example B, and the mixture was then thoroughly mixed. The mixture was heated until reaching 45° C., then it was let to cool to 30° C., and then it was poured into molds (6 g/piece). The molds with the chocolate were put in the fridge for a quicker hardening.

[3] = Sugar (HFCS) substitution in orange soft drink, triangular test by calibrated panel; conditions: orange soft drink sweetened with HFCS
Protocol: A reference orange soft drink sweetened with high fructose corn syrup (HFCS) was prepared, using the ingredients listed in Table 9 (Formula 1). All the percentages in the table are by weight.
For preparing the beverages, the following process was followed. The high fructose corn syrup was weighed in a 1 L beaker. The remaining minor ingredients (sodium benzoate, potassium sorbate, citric acid, orange soda colour and orange soda flavour) were separately weighed in small beakers, and water was added to each of the small beakers and mixed until solubilizing each ingredient. Once dissolved, all those minor ingredients were added to the 1 L beaker with the HFCS. The obtained solution was thoroughly mixed and water was added gradually to 1 Kg.
For assaying the possible substitution of HFCS with NHDC and with the composition of the present invention (Example B), a 0.1% mother solution of NHDC in water was prepared by gradually adding 0.1 g of NHDC to 99.9 g of water, mixing, and heating to 66° C. during 15 minutes until a yellowish solution was obtained; the solution was then left to cool to room temperature. […]
Maximum sugar substitution with NHDC was then determined by replacing increasing amounts of HFCS by NHDC and then passing the reference and the prototype through a triangular test by a calibrated panel.

[4] = Sweetening synergy sensory test: concentration equisweet to sucrose reference solutions in water, expert panel; conditions: for Relative sweetening power: ratio sucrose concentration / equisweet concentration; for Equisweet concentration: room temperature
Protocol: A sensory test was performed to assess the sweetening synergism achieved with the composition of the invention (Examples A and B), and this effect was also compared to the effect obtained with analogous compositions containing beta-cyclodextrin (Comparative Examples A and B). Further compositions of the present invention (Examples C, D and E) were also assessed in this sensory test.
A group of expert panellists in sweet descriptors evaluated the sweetness of the different compositions as well as that of the ingredients NHDC, beta-cyclodextrin and gamma-cyclodextrin used alone.
Each evaluated sweetening agent was dissolved in water at different concentrations, at room temperature. The panel then determined, for each product, the concentration that was equisweet to the reference solutions of 1% and 3% sucrose in water. The results are summarized in Table 3 (Examples A and B are abbreviated as Ex. A and Ex. B, respectively, and the Comparative Examples A and B are abbreviated as Comp. A and Comp. B, respectively).
Since beta- and gamma-cyclodextrins are also sweet compounds, the equisweet concentrations of both cyclodextrins were also determined by the test panel to assess their possible contribution to the sweetness of the composition. […] Therefore, as the equisweet concentrations of both cyclodextrins are at least three orders of magnitude larger than those of NHDC, it was concluded that their contribution to the sweetness was negligible.
A more quantitative evaluation of the sweetness synergy provided by the compositions of the present invention was performed by comparing the real measured sweetness of the compositions comprising gamma-cyclodextrin and NHDC with the theoretical sweetness expected from the sum of the individual contribution of each component in the composition.
To this end, the relative sweetening power of each component was first calculated. For comparative purposes, the relative sweetening power of beta-cyclodextrin was also calculated. The relative sweetening power of a given compound, at a given sweetness level, indicates how many times sweeter this compound is than sucrose. It is therefore calculated as the ratio between the concentration of sucrose and the equisweet concentration of each ingredient, for each sweetness level.
From the relative sweetening power of each ingredient, it is possible to calculate the expected sweetness (sucrose equivalence) of a blend of those ingredients, according to Formula I:
Expected sweetness (sucrose equivalence) of a blend C1+C2=Concentration of compound C1×relative sweetening power of compound C1+Concentration of compound C2×relative sweetening power of compound C2
Then, the sweetness synergy of a blend of components can be calculated according to Formula II: […]
As disclosed above in Example 3, the relative sweetening power of a given compound, at a given sweetness level, indicates how many times sweeter than sucrose the compound is, and the value is calculated as the ratio between the concentration of sucrose and the equisweet concentration of the compound.

COc1ccc(CCC(=O)c2c(O)cc(O[C@@H]3O[C@H](CO)[C@@H](O)[C@H](O)[C@H]3O[C@@H]3O[C@@H](C)[C@H](O)[C@@H](O)[C@H]3O)cc2O)cc1O [NHDC, 1-[4-[[2-O-(6-Deoxy-α-L-mannopyranosyl)-β-D-glucopyranosyl]oxy]-2,6-dihydroxyphenyl]-3-(3-hydroxy-4-methoxyphenyl)propan-1-one]
Amount used for the maximum sucrose substitution [1]: 10 ppm | Maximum sucrose substitution without changing the taste profile ([1]; reference with 10% added sucrose): 15% | Amount used for the maximum sugar substitution [2]: 3 ppm | Maximum sugar substitution without changing the taste profile ([2]; reference with 6% powdered sugar): 10% | Amount needed to obtain 10% sugar substitution [3]: 10 ppm | Maximum sugar substitution without any noticeable difference in a triangular test [3]: 10% | Relative sweetening power ([4]; 1% sucrose level): 2000 | NHDC amount contained in the equisweet concentration ([4]; 1% sucrose sweetness level): (5.0) ppm | Relative sweetening power ([4]; 3% sucrose level): 1250 | NHDC amount contained in the equisweet concentration ([4]; 3% sucrose sweetness level): (24.0) ppm | Equisweet concentration ([4]; equisweet to 1% sucrose in water): 5 ppm and 5.0 ppm | Equisweet concentration ([4]; equisweet to 3% sucrose in water): 24 ppm and 24.0 ppm
